Source: patent US20110178094A1, “Oral Formulation” (H. LUNDBECK A/S, priority 2008, published 2011)

What was measured:
[1] = Study of the compatibility of the excipients and the compound; format: physicochemical; settings: components used in the tablet formulation
From the text: Based on this, a traditional wet granulation, tabletting and film-coating process was developed using standard methods and excipients.

[2] = tested on: condition avoidance response (CAR) model; assay: Condition avoidance response (CAR) model; format: in vivo; settings: rats; at very low levels of D2 receptor occupancy
From the text: The compound of formula I is a putative antipsychotic compound with affinity for both dopamine D1 and D2 receptors.

5-HT2 receptor = settings: reported in WO 2005/016900; cited from earlier work
α1 adrenoceptors = settings: reported in WO 2005/016900; cited from earlier work
dopamine D2 receptors = dopamine D2 receptors (Homo sapiens, UniProt P14416); settings: reported in WO 2005/016900; cited from earlier work
Chain of dopamine D2 receptors (P14416 whole entry): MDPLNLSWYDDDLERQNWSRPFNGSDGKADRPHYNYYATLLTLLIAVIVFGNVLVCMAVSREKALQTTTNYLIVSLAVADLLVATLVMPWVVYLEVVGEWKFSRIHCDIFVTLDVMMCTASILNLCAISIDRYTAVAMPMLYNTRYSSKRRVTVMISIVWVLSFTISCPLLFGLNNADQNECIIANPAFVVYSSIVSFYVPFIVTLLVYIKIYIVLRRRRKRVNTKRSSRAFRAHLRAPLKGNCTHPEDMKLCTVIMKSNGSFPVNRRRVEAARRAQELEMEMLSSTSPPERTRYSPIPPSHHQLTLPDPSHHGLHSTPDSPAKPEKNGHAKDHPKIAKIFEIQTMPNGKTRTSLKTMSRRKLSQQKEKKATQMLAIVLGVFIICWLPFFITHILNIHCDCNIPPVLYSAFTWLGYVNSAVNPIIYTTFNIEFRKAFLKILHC

dopamine D1 receptors = dopamine D1 receptors (Homo sapiens, UniProt P21728); settings: reported in WO 2005/016900; cited from earlier work
Chain of dopamine D1 receptors (P21728 whole entry): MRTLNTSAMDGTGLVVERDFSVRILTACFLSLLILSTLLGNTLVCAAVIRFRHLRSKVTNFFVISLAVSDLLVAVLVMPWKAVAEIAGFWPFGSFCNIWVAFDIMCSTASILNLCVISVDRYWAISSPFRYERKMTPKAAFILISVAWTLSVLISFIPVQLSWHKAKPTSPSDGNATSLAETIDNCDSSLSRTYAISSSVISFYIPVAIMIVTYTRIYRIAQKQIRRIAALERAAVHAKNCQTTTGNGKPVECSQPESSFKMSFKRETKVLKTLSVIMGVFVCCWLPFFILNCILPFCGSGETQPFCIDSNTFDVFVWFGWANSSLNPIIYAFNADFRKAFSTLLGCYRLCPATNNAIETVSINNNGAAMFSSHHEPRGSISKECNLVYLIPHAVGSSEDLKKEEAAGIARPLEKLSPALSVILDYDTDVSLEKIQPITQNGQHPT

[3] = tested on: preclinical models of cognitive dysfunctions; assay: Preclinical models of cognitive dysfunctions; format: in vivo
From the text: It is believed that the 5-HT6 receptor affinity of the compound of formula I is involved in the precognitive effects of the compound. Furthermore, it is believed that such pro-cognitive effect of the compound of formula I will be evident at a low level of D2 receptor occupancy, which is beneficial in terms of the side-effect profile.

In the case of `CN1CCN([C@@H]2C[C@@H](c3ccccc3)c3ccc(Cl)cc32)CC1(C)C` [compound of formula I, 4-((1R,3S)-6-chloro-3-phenylindan-1-yl)-1,2,2-trimethylpiperazine], the “compatibility of the tablet excipients with the compound” value [1] is given as “compatible”, the “antipsychotic activity in CAR model” value [2] is given as “possesses antipsychotic activity” and the “affinity for the 5-HT2 receptor (antagonist)” value (5-HT2 receptor) is given as “high affinity”. For the same compound, the “affinity for α1 adrenoceptors” value (α1 adrenoceptors) was “high affinity”, the “affinity for dopamine D2 receptors (antagonist)” value (dopamine D2 receptors) was “high affinity” and the “affinity for dopamine D1 receptors (antagonist)” value (dopamine D1 receptors) was “high affinity”. For the same compound, the cognition enhancing properties [3] was “cognition enhancing properties”.
